The text below walks through data of patent US20240252488A1 (KOREA RESEARCH INSTITUTE OF CHEMICAL TECHNOLOGY, priority 2020, published 2024).

Usually Kd stands for a measure of binding affinity in units of concentration. Lower therefore signals higher affinity.

In one assay the test system is FADD−/− Jurkat cells. Put plainly: Necroptosis inhibition assay, TNF-α-induced necroptosis (CellTiter-Glo 2.0). The class given is cell-based, human. The following applies: TNF-α 15 ng/mL; for Necroptosis inhibition assay (Rescue %) 1 μM: compound 1 μM; for Necroptosis inhibition assay (Rescue %) 10 μM: compound 10 μM. Put shortly:
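Tested at three fixed concentrations (0.1, 1, 10 μM final) with a 30-minute room-temperature preincubation ahead of 15 ng/mL TNF-α challenge lasting 20 to 24 hours. Inhibition rate and cytotoxicity derive from ATP luminescence.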

Assay [1] has as its target T1, MLKL (Homo sapiens, UniProt Q8NB16).
T1 sequence (Q8NB16 1-471): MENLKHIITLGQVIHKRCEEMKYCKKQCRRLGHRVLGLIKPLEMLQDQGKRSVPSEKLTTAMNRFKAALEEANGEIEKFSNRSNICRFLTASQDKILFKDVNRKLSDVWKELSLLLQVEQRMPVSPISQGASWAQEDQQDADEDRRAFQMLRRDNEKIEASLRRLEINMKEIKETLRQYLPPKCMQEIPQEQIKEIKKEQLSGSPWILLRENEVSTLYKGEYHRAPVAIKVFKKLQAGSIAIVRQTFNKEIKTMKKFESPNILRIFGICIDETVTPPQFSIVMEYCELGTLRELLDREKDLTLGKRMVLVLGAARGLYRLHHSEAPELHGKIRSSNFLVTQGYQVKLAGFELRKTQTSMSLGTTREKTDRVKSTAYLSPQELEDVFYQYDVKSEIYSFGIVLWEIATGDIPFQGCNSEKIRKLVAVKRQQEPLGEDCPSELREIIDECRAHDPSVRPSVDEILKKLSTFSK
Put plainly: Measurement of binding affinity with MLKL receptor (competitive binding assay, Kd). Details: made in house; host or cells: HEK 293 cell line (T7 phage in E. coli BL21-derived host is also described). Put shortly:
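Kd comes from a bead-based competition format: compound-dependent loss of DNA-tagged, HEK 293-expressed MLKL capture, measured as eluate kinase by qPCR. Final DMSO is 0.9%.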

Assay [2] has as its target T1, MLKL. Put plainly: MLKL degradation assay in HepG2 cell line (western blot). The format is cell-based. Details: endogenous in cells; host or cells: HepG2 or HaCaT. The following applies: cell line not given; for Degradation assay (Degradation %) 1 μM: compound 1 μM; for Degradation assay (Degradation %) 10 μM: compound 10 μM. Put shortly:
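Degradation is judged from MLKL band intensity on immunoblots of HepG2 lysates taken after 20-24 hours of compound at final 1 or 10 μM.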

The structures appear in SMILES notation.

For the compound `Nc1ncc(-c2cnn(C3CN(CC4CCN(C(=O)CNc5ccc6c(c5)C(=O)N(C5CCC(=O)NC5=O)C6=O)CC4)C3)c2)nc1C(=O)OC(C(=O)Nc1ccc(F)cc1)c1ccccc1` (centres unmarked) [TDH-297, 2-((4-fluorophenyl)amino)-2-oxo-1-phenylethyl 3-amino-6-(1-(1-((1-((2-(2,6-dioxopiperidin-3-yl)-1,3-dioxoisoindolin-5-yl)glycyl)piperidin-4-yl)methyl)azetidin-3-yl)-1H-pyrazol-4-yl)pyrazine-2-carboxylate], in the assay with FADD−/− Jurkat cells, the “Necroptosis inhibition assay (Rescue %) 1 μM” value was 74.28% and the “Necroptosis inhibition assay (Rescue %) 10 μM” value amounted to 63.92%. On MLKL [1], this compound came in with a dissociation constant (Kd) of 13 nM. On MLKL [2], the “Degradation assay (Degradation %) 1 μM” value is 76.86% and the “Degradation assay (Degradation %) 10 μM” value came to 70.16%.

For the compound `Nc1ncc(-c2cnn(C3CCN(C4CC5(CCN(CC6CCN(C(=O)c7ccc(C(=O)NC8CCC(=O)NC8=O)cc7)CC6)CC5)C4)CC3)c2)nc1C(=O)O[C@@H](C(=O)Nc1ccc(F)cc1)c1ccccc1` (stereo partly drawn) [TDH-537, (R)-2-((4-fluorophenyl)amino)-2-oxo-1-phenylethyl 3-amino-6-(1-(1-(7-((1-(4-((2,6-dioxopiperidin-3-yl)carbamoyl)benzoyl)piperidin-4-yl)methyl)-7-azaspiro[3.5]nonan-2-yl)piperidin-4-yl)-1H-pyrazol-4-yl)pyrazine-2-carboxylate], in the assay on FADD−/− Jurkat cells (FADD−/− Jurkat cells), the “Necroptosis inhibition assay (Rescue %) 1 μM” value worked out at 32.07% and the “Necroptosis inhibition assay (Rescue %) 10 μM” value was determined as 30.76%. For the same compound, the Kd on MLKL [1] came out at 0.61 nM. At MLKL [2], the “Degradation assay (Degradation %) 1 μM” value is listed as 64.82% and the “Degradation assay (Degradation %) 10 μM” value is 86.14%.

`Nc1ncc(-c2cnn(C3CCN(CCOCCNC(=O)CNc4cccc5c4C(=O)N(C4CCC(=O)NC4=O)C5=O)CC3)c2)nc1C(=O)O[C@@H](C(=O)Nc1ccc(F)cc1)c1ccccc1` (stereo partly drawn) [TDH-096, (R)-2-((4-fluorophenyl)amino)-2-oxo-1-phenylethyl 3-amino-6-(1-(1-(2-(2-(2-((2-(2,6-dioxopiperidin-3-yl)-1,3-dioxoisoindolin-4-yl)amino)acetamido)ethoxy)ethyl)piperidin-4-yl)-1H-pyrazol-4-yl)pyrazine-2-carboxylate]: in the assay with FADD−/− Jurkat cells, the “Necroptosis inhibition assay (Rescue %) 1 μM” value is on record as 32.98% and the “Necroptosis inhibition assay (Rescue %) 10 μM” value was 30.53%. Besides, the Kd on MLKL [1] was 4 nM. Besides, on MLKL [2], the “Degradation assay (Degradation %) 1 μM” value was 60.02% and the “Degradation assay (Degradation %) 10 μM” value is 68.41%.

Regarding `Nc1ncc(-c2cnn(C3CCN(C[C@H]4CC[C@H](CNC(=O)CNc5cccc6c5C(=O)N(C5CCC(=O)NC5=O)C6=O)CC4)CC3)c2)nc1C(=O)O[C@@H](C(=O)Nc1ccc(F)cc1)c1ccccc1` (stereo partly drawn) [TDH-347, (R)-2-((4-fluorophenyl)amino)-2-oxo-1-phenylethyl 3-amino-6-(1-(1-(((1r,4r)-4-((2-((2-(2,6-dioxopiperidin-3-yl)-1,3-dioxoisoindolin-4-yl)amino)acetamido)methyl)cyclohexyl)methyl)piperidin-4-yl)-1H-pyrazol-4-yl)pyrazine-2-carboxylate], in the assay on FADD−/− Jurkat cells, the “Necroptosis inhibition assay (Rescue %) 1 μM” value is 23.88% and the “Necroptosis inhibition assay (Rescue %) 10 μM” value was 12.87%. This compound also had a dissociation constant (Kd) on MLKL [1] of 1.9 nM. Besides, at MLKL [2], the “Degradation assay (Degradation %) 1 μM” value turned out to be 77.96% and the “Degradation assay (Degradation %) 10 μM” value was 85.06%.

Take `Nc1ncc(-c2cnn(C3CCN(C[C@H]4CC[C@H](CNC(=O)C5CCN(c6ccc7c(c6)C(=O)N(C6CCC(=O)NC6=O)C7=O)CC5)CC4)CC3)c2)nc1C(=O)O[C@@H](C(=O)Nc1ccc(F)cc1)c1ccccc1` (stereo partly drawn) [TDH-350, (R)-2-((4-fluorophenyl)amino)-2-oxo-1-phenylethyl 3-amino-6-(1-(1-(((1r,4r)-4-((1-(2-(2,6-dioxopiperidin-3-yl)-1,3-dioxoisoindolin-5-yl)piperidine-4-carboxamido)methyl)cyclohexyl)methyl)piperidin-4-yl)-1H-pyrazol-4-yl)pyrazine-2-carboxylate]: in the assay with FADD−/− Jurkat cells, the “Necroptosis inhibition assay (Rescue %) 1 μM” value is recorded as 39.64% and the “Necroptosis inhibition assay (Rescue %) 10 μM” value is 34.84%. The compound further showed a Kd on MLKL [1] of 3.7 nM. Also, on MLKL [2], the “Degradation assay (Degradation %) 1 μM” value amounted to 86.13% and the “Degradation assay (Degradation %) 10 μM” value turned out to be 88.73%.

Consider `Nc1ncc(-c2cnn(C3CCN(CCOCCNc4cccc5c4C(=O)N(C4CCC(=O)NC4=O)C5=O)CC3)c2)nc1C(=O)O[C@@H](C(=O)Nc1ccc(F)cc1)c1ccccc1` (stereo partly drawn) [TDH-130, (R)-2-((4-fluorophenyl)amino)-2-oxo-1-phenylethyl 3-amino-6-(1-(1-(2-(2-((2-(2,6-dioxopiperidin-3-yl)-1,3-dioxoisoindolin-4-yl)amino)ethoxy)ethyl)piperidin-4-yl)-1H-pyrazol-4-yl)pyrazine-2-carboxylate], for which, in the assay with FADD−/− Jurkat cells, the “Necroptosis inhibition assay (Rescue %) 1 μM” value worked out at 40.74% and the “Necroptosis inhibition assay (Rescue %) 10 μM” value is on record as 27.69%. At MLKL [1], this compound returned a Kd of 11 nM. Moreover, at MLKL [2], the “Degradation assay (Degradation %) 1 μM” value was determined as 58.3% and the “Degradation assay (Degradation %) 10 μM” value is given as 24.87%.

With `Nc1ncc(-c2cnn(C3CCN(C(=O)c4cn(C5CCN(c6ccc7c(c6)C(=O)N(C6CCC(=O)NC6=O)C7=O)CC5)cn4)CC3)c2)nc1C(=O)O[C@@H](C(=O)Nc1ccc(F)cc1)c1ccccc1` (stereo partly drawn) [TDH-365, (R)-2-((4-fluorophenyl)amino)-2-oxo-1-phenylethyl 3-amino-6-(1-(1-(1-(1-(2-(2,6-dioxopiperidin-3-yl)-1,3-dioxoisoindolin-5-yl)piperidin-4-yl)-1H-imidazole-4-carbonyl)piperidin-4-yl)-1H-pyrazol-4-yl)pyrazine-2-carboxylate], in the assay on FADD−/− Jurkat cells, the “Necroptosis inhibition assay (Rescue %) 1 μM” value is on record as 19.16% and the “Necroptosis inhibition assay (Rescue %) 10 μM” value amounted to 16.51%. For the same compound, at MLKL [1], the equilibrium dissociation constant (Kd) was determined as 3.9 nM. Moreover, on MLKL [2], the “Degradation assay (Degradation %) 1 μM” value was found to be 72.59% and the “Degradation assay (Degradation %) 10 μM” value amounted to 82.21%.

Turning to `Nc1ncc(-c2cnn(C3CCN(CCCN4CC5CC4CN5C(=O)COc4ccc5c(c4)C(=O)N(C4CCC(=O)NC4=O)C5=O)CC3)c2)nc1C(=O)O[C@@H](C(=O)Nc1ccc(F)cc1)c1ccccc1` (stereo partly drawn) [TDH-453, (R)-2-((4-fluorophenyl)amino)-2-oxo-1-phenylethyl 3-amino-6-(1-(1-(3-(5-(2-((2-(2,6-dioxopiperidin-3-yl)-1,3-dioxoisoindolin-5-yl)oxy)acetyl)-2,5-diazabicyclo[2.2.1]heptan-2-yl)propyl)piperidin-4-yl)-1H-pyrazol-4-yl)pyrazine-2-carboxylate], in the assay with FADD−/− Jurkat cells (FADD−/− Jurkat cells), the “Necroptosis inhibition assay (Rescue %) 1 μM” value is recorded as 51.32% and the “Necroptosis inhibition assay (Rescue %) 10 μM” value is reported as 49.41%. On MLKL [1], this compound displayed a dissociation constant Kd of 0.64 nM. On MLKL [2], the “Degradation assay (Degradation %) 1 μM” value worked out at 74.72% and the “Degradation assay (Degradation %) 10 μM” value is 92.96%.

Turning to `Nc1ncc(-c2cnn([C@H]3CCN(CCOCCOCCNC(=O)CNc4cccc5c4C(=O)N(C4CCC(=O)NC4=O)C5=O)C3)c2)nc1C(=O)OC(C(=O)Nc1ccc(F)cc1)c1ccccc1` (stereo partly drawn) [TDH-263, 2-((4-fluorophenyl)amino)-2-oxo-1-phenylethyl 3-amino-6-(1-((3S)-1-(2-(2-(2-(2-((2-(2,6-dioxopiperidin-3-yl)-1,3-dioxoisoindolin-4-yl)amino)acetamido)ethoxy)ethoxy)ethyl)pyrrolidin-3-yl)-1H-pyrazol-4-yl)pyrazine-2-carboxylate], in the assay with FADD−/− Jurkat cells, the “Necroptosis inhibition assay (Rescue %) 1 μM” value is listed as 16.13% and the “Necroptosis inhibition assay (Rescue %) 10 μM” value was found to be 57.97%. At MLKL [1], this compound showed a Kd of 7.4 nM. At MLKL [2], the “Degradation assay (Degradation %) 1 μM” value came to 76.27% and the “Degradation assay (Degradation %) 10 μM” value stood at 71.82%.

Consider `Nc1ncc(-c2cnn(C3CCN(C[C@H]4CC[C@H](CNC(=O)COc5ccc6c(c5)C(=O)N(C5CCC(=O)NC5=O)C6=O)CC4)CC3)c2)nc1C(=O)O[C@@H](C(=O)Nc1ccc(F)cc1)c1ccccc1` (stereo partly drawn) [TDH-346, (R)-2-((4-fluorophenyl)amino)-2-oxo-1-phenylethyl 3-amino-6-(1-(1-(((1r,4r)-4-((2-((2-(2,6-dioxopiperidin-3-yl)-1,3-dioxoisoindolin-5-yl)oxy)acetamido)methyl)cyclohexyl)methyl)piperidin-4-yl)-1H-pyrazol-4-yl)pyrazine-2-carboxylate], for which, in the assay with FADD−/− Jurkat cells, the “Necroptosis inhibition assay (Rescue %) 1 μM” value is listed as 57.41% and the “Necroptosis inhibition assay (Rescue %) 10 μM” value came out at 24.57%. On MLKL [1], this compound had a Kd of 1.2 nM. At MLKL [2], the “Degradation assay (Degradation %) 1 μM” value is 85.62% and the “Degradation assay (Degradation %) 10 μM” value is reported as 81.91%.
